Assay results reported in patent publication US20160296538A1, “[…] RESPONSE BIOMARKER FOR TH-302 ANTI-CANCER THERAPY” (THRESHOLD PHARMACEUTICALS, INC., priority 2013, published 2016).
“Also recorded” adds a separate entry of the source.

How the values were obtained:
[1] = test system: carbonic anhydrase IX (CA-IX); assay: ELISA quantification of circulating plasma CA-IX in H460 xenograft animals; format: in vivo, nu/nu mice; settings: for circulating plasma CA-IX level change: 72 hours, TH-302 150 mg/kg i.p., doxorubicin 4 mg/kg iv
Experimental: (§1) Three biomarker platforms were employed in this study: positron emission tomography (PET) imaging employing the tracer [18F]-HX4; immunohistochemistry of isolated tumor tissue employing antibodies directed against the exogenous hypoxia biomarker pimonidazole and the endogenous hypoxia biomarker carbonic anhydrase IX (CA-IX); and ELISA-based quantification of circulating plasma CA-IX.
[18F]-HX4 uptake was assessed by PET/CT imaging, and the tumor to muscle ratio (T/M) was determined. […] Blood was collected from the pre- and post-treated animals via retro-orbital venipuncture. […] For tissue biomarker analysis, tumors were harvested 72 hours after TH-302 treatment, and tumor hypoxia was assessed by semi-quantitative morphometric analysis of the PIMO immunostaining at that time.

[2] = test system: H460 xenograft tumor hypoxia (pimonidazole); assay: Pimonidazole immunostaining of H460 tumors (hypoxic fraction); format: in vivo, nu/nu mice
Source text: (§2) Proliferating cells (as measured by Ki-67 immunostaining) were decreased as well; DNA damage (as measured by γH2AX immunostaining) and necrosis (as measured by hematoxylin and eosin, H&E, staining) were increased. There was regional co-localization of pimonidazole and CA-IX, but not co-localization of pimonidazole and two other putative endogenous hypoxia markers: Glut-1 or HIF-1α.
as §1
(§3) [18F]-HX4 uptake was assessed by PET/CT imaging, and the tumor to muscle ratio (T/M) was determined. […] Blood was collected from the pre- and post-treated animals via retro-orbital venipuncture. Plasma CA-IX changed from baseline 165±13 to 104±9.3 pg/ml 72 hours after TH-302 dosing, a 37% reduction (p<0.05; n=10 per group). […] For tissue biomarker analysis, tumors were harvested 72 hours after TH-302 treatment, and tumor hypoxia was assessed by semi-quantitative morphometric analysis of the PIMO immunostaining at that time. […]

[3] = test system: H460 xenograft tumors; assay: Tissue biomarkers in H460 tumors (Ki67, γH2AX, H&E); format: in vivo, nu/nu mice; settings: 72 hours after 150 mg/kg i.p.
Experimental: as §2
[18F]-HX4 uptake was assessed by PET/CT imaging, and the tumor to muscle ratio (T/M) was determined. […] Blood was collected from the pre- and post-treated animals via retro-orbital venipuncture. Plasma CA-IX changed from baseline 165±13 to 104±9.3 pg/ml 72 hours after TH-302 dosing, a 37% reduction (p<0.05; n=10 per group). […] For tissue biomarker analysis, tumors were harvested 72 hours after TH-302 treatment, and tumor hypoxia was assessed by semi-quantitative morphometric analysis of the PIMO immunostaining at that time. The hypoxic fraction (HF) was 13±1.7% in the vehicle group (n=5) and 5.8±0.5% in the TH-302 treatment group (n=6, p<0.05).

[4] = test system: H460 non-small cell lung cancer xenograft; assay: H460 ectopic xenograft tumor growth and body weight, 150 mg/kg i.p.; format: in vivo, nu/nu mice
Source text: as §2
The human H460 non-small cell lung cancer human tumor ectopic xenograft model was employed for this study. The H460 non-small cell lung cancer xenograft model was established by s.c. implantation of 1×10^6 cells in the flank of nu/nu mice. When the tumor size was 100 mm^3, a single dose of TH-302 (150 mg/kg, i.p.) or vehicle was administered.

[5] = test system: H460 human non-small cell lung cancer (NSCLC) cell line; assay: H460 NSCLC xenograft tumor growth, repeated dosing; format: in vivo; settings: H460 model; 50 mg/kg QDx5 for 2 wk, i.p.; P vs vehicle <0.001
Source text: (§4) H460 is a high hypoxic fraction tumor model, while the 786-O RCC model is well-vascularized with very low hypoxia. […] When compiling the data from both H460 and 786-O tumors, there was significant correlation between [18F]-HX4 uptake and pimonidazole-positive hypoxic fraction (HF %, R2=0.55, p=0.006).
(§5) The utility of [18F]-HX4 to serve as a predictive biomarker for TH-302 anti-cancer efficacy was shown by the significant correlation observed between the TH-302 anti-cancer efficacy in a model and its hypoxic fraction as measured by [18F]-HX4. […] TGD500 was determined as the increased time (days) for the treated tumor's size on average to reach 500 mm^3 as compared with the vehicle group. TGI was defined as (1−ΔT/ΔC)×100, where ΔT/ΔC is the ratio of the change in mean tumor volume of the treated group (ΔT) and of the control group (ΔC).

[6] = test system: H460 xenograft tumor hypoxia ([18F]-HX4 uptake); assay: [18F]-HX4 PET/CT imaging of H460 xenograft tumors; format: in vivo, nu/nu mice
Source text: as §2, §1, §3

[7] = test system: 786-O human renal cell carcinoma (RCC) cell line; assay: 786-O RCC xenograft tumor growth, repeated dosing; format: in vivo; settings: 786-O model; 50 mg/kg QDx5 for 2 wk, i.p.; P vs vehicle >0.05
Source text: as §4, §5

[8] = 72 hrs after one dose at 150 mg/kg i.p.

Row | Compound | circulating plasma CA-IX level change [1] | hypoxic fraction (HF %) change, pimonidazole immunostaining ([2]; 72 hours after treatment) | hypoxic fraction (HF), PIMO immunostaining ([2]; tumors harvested 72 hours after 150 mg/kg i.p., vehicle 13±1.7%, n=6, p<0.05) | Plasma CA-IX ([1]; 72 hours after dosing 150 mg/kg i.p., baseline 165±13, n=10 per group) | Plasma CA-IX reduction from baseline ([1]; 72 hours after dosing 150 mg/kg i.p., p<0.05) | DNA damage (γH2AX immunostaining) [3] | Proliferating cells (Ki67 immunostaining) [3] | necrosis (hematoxylin and eosin staining) [3] | tumor growth in relation to initial [18F]-HX4 uptake ([4]; 150 mg/kg i.p., Q4-5Dx3) | tumor volume change [4, 8] | TGD1000 (tumor growth delay to tumor size of 1000 mm^3) ([4]; single dose 150 mg/kg i.p.) | maximum body weight loss ([4]; single dose 150 mg/kg i.p.) | TGI (tumor growth inhibition) ([4]; single dose 150 mg/kg i.p. at tumor size 100 mm^3) | TGD500 (increased time for treated tumor to reach 500 mm^3 vs vehicle) [5] | TGI [5] | [18F]-HX4 tumor to muscle ratio (T/M) ([6]; 72 hours after 150 mg/kg i.p., pre-treatment 3.3±0.3, p<0.005) | [18F]-HX4 uptake change (PET-CT) [6, 8] | TGD500 (increased time for treated tumor to reach 500 mm^3 vs vehicle) [7] | TGI [7]
1 | COc1cccc2c1C(=O)c1c(O)c3c(c(O)c1C2=O)C[C@@](O)(C(=O)CO)C[C@@H]3O[C@H]1C[C@H](N)[C@H](O)[C@H](C)O1 [doxorubicin, reference compound] | did not change circulating CA-IX levels significantly; also recorded: No change | – | – | – | – | – | – | – | – | – | – | – | – | – | – | – | – | – | –
2 | Cn1c(COP(=O)(NCCBr)NCCBr)cnc1[N+](=O)[O-] [TH-302, (2-bromoethyl)({[(2-bromoethyl)amino][(2-nitro-3-methylimidazol-4-yl)methoxy]phosphoryl})amine] | significantly reduced | significantly reduced | 5.8±0.5% | 104 ± 9.3 pg/mL | 37% | significantly increased | decreased; also recorded: significantly reduced | significantly increased | tumors with higher initial [18F]-HX4 uptake grew slower | did not change significantly | 10 days | 2% | 58% | 18 days | 89% | 2.1±0.2 | significantly reduced | 10 days | 10%
